According to paper PMC11436758, “Computer-aided drug design to generate a unique antibiotic family” (Nature Communications, 2024):
In brackets after ≈: the same amount, converted by molar mass.

Key:
[1] = test system: MRSA (ATCC 33591); experiment: MIC, CLSI broth microdilution; type: cell-based, S. aureus; details: three individual replicates
Experimental: The medium employed for the assay was Mueller Hinton II Broth (MHB II; Becton-Dickinson, Sparks, MD, USA). Agar plates used for the organisms were trypticase soy agar plus 5% sheep blood (BD; Sparks, MD, USA). MIC assay plates were prepared using the CLSI broth microdilution procedure. Automated liquid handlers (Multidrop 384, Biomek 2000 and Biomek FX) were used to conduct serial dilutions and liquid transfers. A standardized inoculum of each organism was prepared per CLSI methods. Suspensions were prepared to equal a 0.5 McFarland standard, followed by a 1:20 dilution in test media. The inocula were dispensed into sterile reservoirs divided by length (Beckman Colter) and the Biomek 2000 was used to inoculate the plates. Daughter plates were placed on the Biomek 2000 work surface in reverse orientation so that inoculation took place from low to high drug concentration. The Biomek 2000 delivered 10 μL of the diluted suspension into each well. These inoculations yielded a final cell concentration in the daughter plates of ~5 × 10^5 colony-forming units/mL in each well. The wells of the daughter plates ultimately contained 185 μL of broth, 5 μL of drug solution, and 10 μL of bacterial inoculum. Plates were covered with a sterile lid on the top plate, placed in plastic bags, and incubated at 35 °C for ~18 h. The microplates were viewed from the bottom using a plate viewer and the MIC was read. The MIC was recorded as the lowest concentration of drug that inhibited visible growth of the organism. Uninoculated solubility control plates were also observed for evidence of drug precipitation.

[2] = molecular target: AcpS (Escherichia coli, UniProt P24224); experiment: AcpS enzyme activity inhibition (IC50) by DNM compounds, [3H]acetyl-CoA / apo-ACP assay; type: biochemical; details: three individual replicates
AcpS, sequence (P24224 2-126): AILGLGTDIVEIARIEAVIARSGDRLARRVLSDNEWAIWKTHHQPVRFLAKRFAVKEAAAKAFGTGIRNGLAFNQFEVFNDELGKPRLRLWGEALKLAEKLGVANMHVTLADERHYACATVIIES
Description: The acpP gene encoding ACP was amplified from E. coli genomic DNA and subcloned into the pGEX4T-1 vector. This construct drives the expression of glutathione S-transferase (GST) fused to the ACP open reading frame through a linker containing a consensus sequence for thrombin cleavage. The identity and veracity of acpP was verified by DNA sequencing. BL21 E. coli cells expressing GST-ACP were suspended in ice-cold phosphate buffer saline (PBS) and lysed by sonication. The lysate was made 1% Triton X-100 and rested on ice for 30 min with occasional mixing. A clear supernatant was isolated by centrifugation at 46,000 × g for 30 min, brought to 10 mM MgCl2 and 2 mM MnCl2 and incubated at room temperature for 1 h with occasional mixing. The supplementation of the lysate to 10 mM MgCl2 and 2 mM MnCl2 favors the activity of endogenous ACP phosphodiesterase (acpH) enriching the apo- fraction of GST-ACP. GST-ACP was affinity purified upon binding to glutathione-sepharose. The ACP moiety was eluted from the affinity resin by in-column thrombin digestion. Apo-ACP was separated from holo-ACP and acylated forms of ACP by ion-exchange chromatography on a Mono-Q 5/50 GL at pH 6.1 operated from an AKTA Pure 25 platform. The purity of the apo-ACP preparation was assessed by 20% PAGE on native gels containing 0.5 M urea.
The acpS gene was amplified from S. aureus and E. coli genomic DNA and inserted into a pET23b vector using standard recombinant DNA methodology such that the protein product would result in addition of a C-terminal 6x-His tag in frame with the AcpS open reading frames. The DNA sequences inserted in the vector were sequenced and found to be identical to the known E. coli and S. aureus acpS open reading frames. Recombinant His-Tagged AcpS expression was induced by IPTG addition and overnight culture. Cell lysate was obtained by sequential aspiration through 16, 18 and 21 G needles in a buffer of 50 mM Tris-HCl (pH 8.5), 10 mM MgCl2, 2 mM DTT, 5% glycerol, and further adjusted to pH 8.1 with MES. […] In a typical AcpS enzyme activity assay, 57 µM [^3H]acetyl-CoA, 2 µg apo-ACP, 10 mM MgCl2, 5 mM DTT, 50 mM Na phosphate (pH 7.0), and AcpS in a final volume of 10 µL were incubated at room temperature in a 1.5 mL microcentrifuge tube. At 5, 10, 15, and 20 min 2 µL of reaction were added to 750 µl 10% TCA on ice. Bovine serum albumin (BSA; 20 µl of a 25 mg/mL solution) was then added to facilitate precipitation of radiolabeled protein. The samples were centrifuged at 12,000 × g for 5 min. Supernatants were removed, and the pellets were rinsed twice with 750 µl of 10% trichloroacetic acid. Pellets were resuspended in 50 µl of formic acid and transferred to scintillation vials. 2 mL of scintillation fluid was added, and the amount of [^3H]-labeled holo-ACP formed was quantified by liquid scintillation counting. The enzymatic reaction proceeded in a linear manner depending on time (10–40 min) and enzyme concentration (1–5 nM). Routinely, each data point was determined at least by triplicate.

[3] = test system: MRSA (ATCC 33591); experiment: Rabbit ischemic ear wound model of infection by MRSA, topical treatment; type: in vivo, New Zealand White rabbits; details: for reduction in bacterial survival as compared to vehicle control: quantitative microbiology at day 14, topical; for wound closure: topical for 14 days, versus vehicle control
Experimental: New Zealand White rabbits from Charles River were employed for this study. Both male and female rabbits were used; sample size prevented disaggregation of data by sex. Investigators were blinded to group allocation, data collection, and data analysis. Food and water were given ad libidum and animals were acclimatized for 7 days with photoperiods of alternating 12 h light and dark at 21 °C in relative humidity of 40–50%. The formulation for delivery of DNM compounds was Glaxal base (WellSpring Pharmaceutical Canada Corp., Oakville, Canada). Formulation was performed by dissolving compound in Glaxal base to give final concentrations of 1% or 2% DNM compound (w/v). The analgesic (Buprenex 0.02 mg/kg sc) and anesthesia (isoflurane (0.5–5% with oxygen carrier 0.5–2 L/min) were used as required during procedures. An ischemia wound healing model was conducted surgically. Each wound was inoculated with 50 μl of 2 × 10^7 CFU/mL MRSA (ATCC #33591) and dressed. After 1 day, wounds were treated with either 50 μl control cream containing vehicle or 50 μl cream containing compound daily. Wounds were assessed and observations recorded using the Draize scoring system. Digital photographs of each wound were obtained and documented.

| Structure (SMILES) | MIC [1] | IC50 [2] | reduction in bacterial survival as compared to vehicle control [3] | wound closure [3] |
| --- | --- | --- | --- | --- |
| Clc1ccc(-c2cc(-c3nnn[nH]3)c(-c3ccc(Cl)cc3)s2)cc1 [DNM0213] | 2 µg/mL (≈ 5.36 µM) |  |  |  |
| Cc1ccc(-c2cc(-c3nnn[nH]3)cc(-c3ccc(C)c4ccccc34)c2)c2ccccc12 [DNM0461] | 0.5 µg/mL (≈ 1.17 µM) |  |  |  |
| c1ccc(-c2ccccc2-c2cc(-c3nnn[nH]3)cc(-c3ccccc3-c3ccccc3)c2)cc1 [DNM0464] | 0.5 µg/mL (≈ 1.11 µM) | 9 µM |  |  |
| Clc1ccc(-c2sc(-c3ccccc3-c3ccccc3)cc2-c2nnn[nH]2)cc1 [DNM0466] | 1 µg/mL (≈ 2.41 µM) | 9 µM |  |  |
| Cc1ccc(-c2sc(-c3ccccc3-c3ccccc3)cc2-c2nnn[nH]2)c2ccccc12 [DNM0472] | 2 µg/mL (≈ 4.5 µM) | 10 µM |  |  |
| Cc1ccc(-c2sc(-c3ccc(Cl)cc3)cc2-c2nnn[nH]2)c2ccccc12 [DNM0473] | 2 µg/mL (≈ 4.96 µM) | 10 µM |  |  |
| Cc1ccc(-c2cc(-c3nnn[nH]3)c(-c3ccccc3-c3ccccc3)s2)c2ccccc12 [DNM0478] | 1 µg/mL (≈ 2.25 µM) | 8 µM |  |  |
| Clc1ccc(-c2cc(-c3nnn[nH]3)cc(-c3ccccc3-c3ccccc3)c2)cc1 [DNM0479] | 1 µg/mL (≈ 2.45 µM) | 9 µM |  |  |
| Cc1ccc(-c2cc(-c3ccc(Cl)cc3)cc(-c3nnn[nH]3)c2)c2ccccc12 [DNM0480] | 2 µg/mL (≈ 5.04 µM) | 8 µM |  |  |
| Clc1ccc(-c2cc(-c3nnn[nH]3)sc2-c2ccc(Cl)cc2)cc1 [DNM0487] | 2 µg/mL (≈ 5.36 µM) | 1 µM | > 99% | significantly improved wound closure |
| Cc1cc(Cl)ccc1-c1cc(-c2nnn[nH]2)sc1-c1ccc(Cl)cc1C [DNM0488] | 2 µg/mL (≈ 4.98 µM) | 9 µM |  |  |
| c1ccc(-c2ccccc2-c2cc(-c3nnn[nH]3)sc2-c2ccccc2-c2ccccc2)cc1 [DNM0489] | 2 µg/mL (≈ 4.38 µM) | 10 µM |  |  |
| Clc1cccc(-c2ccccc2-c2cc(-c3nnn[nH]3)cc(-c3ccccc3-c3cccc(Cl)c3)c2)c1 [DNM0493] | 2 µg/mL (≈ 3.85 µM) | 14 µM |  |  |
| Cc1ccc(-c2ccccc2-c2cc(-c3nnn[nH]3)c(-c3ccccc3-c3ccc(C)c(C)c3)s2)cc1C [DNM0495] | 2 µg/mL (≈ 3.9 µM) | 10 µM |  |  |
| c1ccc2c(c1)oc1c(-c3cc(-c4nnn[nH]4)sc3-c3cccc4c3oc3ccccc34)cccc12 [DNM0542] | 1 µg/mL (≈ 2.06 µM) | 12 µM |  |  |
| CC(C)(C)c1ccc(-c2cc(-c3nnn[nH]3)sc2-c2ccc(C(C)(C)C)cc2)cc1 [DNM0546] | 2 µg/mL (≈ 4.8 µM) | 16 µM |  |  |
| CC(C)c1cc(Cl)ccc1-c1cc(-c2nnn[nH]2)sc1-c1ccc(Cl)cc1C(C)C [DNM0548] | 2 µg/mL (≈ 4.37 µM) | 8 µM |  |  |
| c1ccc(-c2cc(-c3nnn[nH]3)sc2-c2ccccc2-c2ccsc2)c(-c2ccsc2)c1 [DNM0559] | 1 µg/mL (≈ 2.13 µM) | 9 µM |  |  |
| CC(C)c1cc(Cl)ccc1-c1cc(C(=O)O)sc1-c1ccc(Cl)cc1C(C)C [DNM0566] | 1 µg/mL (≈ 2.31 µM) | 13 µM |  |  |
| Clc1ccc(Cc2sc(-c3nnn[nH]3)cc2-c2cccc(CC3CCCC3)c2)cc1 [DNM0610] | 1 µg/mL (≈ 2.3 µM) | 9 µM |  |  |
| Cc1cc(Cl)ccc1-c1sc(-c2nnn[nH]2)c(C)c1-c1ccc(Cl)cc1C [DNM0614] | 1 µg/mL (≈ 2.41 µM) | 13 µM | > 99% | significantly improved wound closure |
| CCCCc1cccc(-c2cc(-c3nnn[nH]3)sc2Cc2ccccc2)c1 [DNM0626] | 0.5 µg/mL (≈ 1.34 µM) | 9 µM |  |  |
| CCCCc1cccc(-c2sc(-c3nnn[nH]3)c(C)c2-c2cccc(CCCC)c2)c1 [DNM0627] | 0.25 µg/mL (≈ 0.581 µM) | 10 µM |  |  |
| Cc1ccc(-c2cc(-c3nnn[nH]3)sc2[C@@H]2CCCc3ccccc32)c2ccccc12 [DNM0636] | 2 µg/mL (≈ 4.73 µM) | 13 µM |  |  |
